Earlier results in patent US20100008923A1, “Organic Compounds” (Novartis AG, priority 2006, published 2010).

Key:
[1] = tested on: HDAC; conditions: Kwon et al. (1998)
[2] = for Potential side effects at upper limits: at upper limit of daily intake

Molecule	HDAC inhibition [1]	Potential side effects at upper limits [2]	Upper limit of daily intake [2]
depudecin	inhibit HDAC at micromolar concentrations	–	–
cyanocobalamin [B12]	–	No known	–
Nc1nc2ncc(CNc3ccc(C(=O)N[C@@H](CCC(=O)O)C(=O)O)cc3)nc2c(=O)[nH]1 [B9, folic acid]	–	No known	–
Cc1ncc(CO)c(CO)c1O [B6, pyridoxine]	–	–	Above 100 mg
O=C(O)c1cccnc1 [B3, nicotinic acid]	–	Liver problems	Above 3000 mg
